From patent publication US5776945A (priority 1995, dated 1998)
pEC50: −log10 of the molar value.

What was measured:
[1] = tested on: Rat Middle Cerebral Artery Occlusion Model; assay: Infarction Suppression Effect in Rat Middle Cerebral Artery Occlusion (MCAO) Model; assay type: in vivo, rat (Wistar); conditions: i.p. 1 hour before occlusion and 1 hour after reopening, infarction volume 4 days after
Excerpt: Remarkable cerebral edema accompanied with severe cerebrovascular lesions appears in the acute stage of human cerebral infarction. […] Corresponding to development of the lesion from the infarction area to surrounding tissues, the patient's life is seriously affected besides motor and mental functional loss in the conditions of the acute stage of cerebral infarction. A middle cerebral artery occlusion (MCAO; Middle Cerebral Artery Occlusion) model in Wistar rats using emboli with threads is well known as an experimental cerebral ischemia model in which clinical potency of a medicine can be accurately evaluated conforming to clinical conditions of human cerebral infarction [J. Koizumi, Japan Journal of Stroke, 8, 1 (1986)]. This MCAO model was employed as an in vivo evaluation system for evaluating the suppression effect of the compounds of the present invention on infarction development and was conducted according to the following method:
Under 1.0% halothane anesthesia induced by ether, the cervical region of each 10-week old rat was excised at center to expose the furcation of the right carotid while paying attention not to damage the vagus nerve. Centering around the furcation of the right carotid, the common carotid and the external carotid were separated from the surrounding tissues, each of them was ligated with 6-0 floss (Eto K.K.), and another floss was wound around the origin of the internal carotid so as to ligate and fix after inserting the embolus into the carotid. The common carotid was then incised to insert the ebolus toward the internal carotid to approximately 15 to 16 mm, and the proximal terminal of a nylon thread of the embolus was ligated and fixed to the internal carotid with the above mentioned floss. Due to the above procedure, the tip of the embolus exceeded the furcation of the middle cerebral artery, entered into the anterior cerebral artery to approximately 1 to 2 mm, and the entrance of the middle cerebral artery was occluded by the embolus body (made of a resin) for 2 hours. To reopen, the embolus with a thread was pulled away so as to restart the blood flow to the middle cerebral artery. Each of the subject compounds was intraperitoneally administered 1 hour before occlusion and 1 hour after reopening. Four days after the occlusion-reopening, each rat was systematically perfused with a saline from the heart and the brain was removed. After cooling each of the obtained brains with iced-water for 5 min., 7 coronary slices, taken at 2.0 mm intervals, of the cerebrum were prepared. Each slice was stained with TTC (triphenyltetrazolium chloride) and fixed with a neutral 5% formalin buffer solution, then the infarction area of the right cerebral hemisphere was measured by an image analyzer (Olympus) so as to evaluate the infraction expressed as a volume (mm3). The resulting infraction volume was compared with that of a control group to calculate the infarction suppression ratio.

[2] = tested on: Cultured Neurocyte (cerebral cortexes), Glutamic Acid Toxicity; assay: Cultured-Neurocyte Protective Effect against Glutamic Acid Toxicity (LDH leakage); assay type: cell-based, rat (Wistar, fetal); conditions: Rattus norvegicus, Cerebral cortex neuron, 10 mM glutamic acid, 24 hours at 37° C., read-out: ED50 (50% effective dose), neurocyte protective effect against glutamic acid toxicity
Excerpt: It is known that delayed cerebral-neuronal death is induced if blood flow to the brain is transiently stopped by transient ischemia, anoxia, hypoglycemia, or trauma [T. Kirino, Brain Research, 239, 57 (1982).]. The excitatory toxicity of excitatory neurotransmitters, such as glutamic acid, which is excessively released when associated with ischemia is considered as the cause of the neurocyte damage [S. M. Rotherman and J. W. Olney, Trends in Neuroscience, 10, 299 (1987).]. A compound which protects neurocytes from the cytotoxicity of glutamic acid will be promising as a preventive and therapeutic agent for cerebral ischemic diseases, cerebral neurocyte disorder, and dementia. The following method is employed as an in vitro evaluation system of the protective effect.
Under sterilized conditions, fetuses were taken from female Wistar rats 18 to 19 day-pregnant and the brains thereof were obtained by opening their cranial portions. The brains were placed in an ice-cold L-15 medium to microscopically separate the cerebral cortexes. After being cut into small pieces, the cerebral cortexes of approximately 30 rats were suspended in a mixture of 10 ml of a 0.25% trypsin solution and 0.2 ml of a 0.01% DNase solution to be cultured at 37° C. for 30 min. Then, immediately after addition of 2 ml of serum, the resultant was centrifuged at 1,200 rpm for 2 min. to separate a sediment. To the sediment, 7 ml of a DF medium (prepared by addition of 20 nM of transferrin, 5 μg/ml of insulin, 20 nM of progesterone, 60 nM of selenite, 50 U/ml of penicillin, and 50 U/ml of streptomycin to an equivalent admixture of Dulbecco modified Eagle medium and F-12 medium) was added to prepare a cell suspension which was pipetted 20 times using a 10 ml plastic pipette followed by filtration using a nylon mesh (pore size of 43 μm) to obtain isolated cells. The resulting isolated cells were diluted to 6.0×10^5 cells/ml with the DF medium, inoculated in a polylysine-precoated culture plate having 48 wells at 500 μl per well, and cultured at 37° C. in the presence of 5% CO2 for 1 day. The medium was changed with fresh DF medium on the second day, and 10 μl of a 0.5M glutamic acid solution in distilled water is added to each of the wells (the final concentration of the glutamic acid was 10 mM), and the cells were cultured for further 24 hours at 37° C. in the presence of 5% CO2. Each of the subject compounds was dissolved in distilled water, 10% or 100% DMSO, or 10% methanol and then a 5 μl aliquot was added to each well immediately before addition of glutamic acid. The enzymatic activity of lactate dehydrogenase (LDH) which leaked into the medium from the damaged cells was measured as an index of the neurocyte damage. With respect to each of the subject compounds, LDH leakage at the respective concentrations was measured and a dose-response curve was obtained by a modified Cochran-Armitige method to obtain the 50% effective dose (ED50) of each subject compound.

[3] = tested on: Acetic Acid-Induced Writhing; assay: Analgesic Activity Test by Acetic Acid-Induced Writhing Method; assay type: in vivo, mouse (ddY); conditions: Mus musculus, sc; subcutaneous, 15 min. before acetic acid; writhings over 10 min.
Protocol: For this experiment, 5-week old ddY mice were employed. A 0.6% aqueous acetic acid solution was intraperitoneally administered to each of the mice at 0.1 ml/10 g body weight to evaluate the analgesic activity by employing the number of writhing reactions occurring over a 10 min.-period starting from 10 min. after administration as an index. Each of the subject compounds was subcutaneously administered to the back of each mouse 15 min. before the acetic acid administration.

Capsaicin Induced Cough = assay: animal or person; assay type: in vivo; conditions: Rattus norvegicus, ip; read-out: ED50, antitussive effect (dose exhibiting 50% cough suppression ratio)

SMILES | Infarction suppression ratio ([1]; Dose 0.03 mg/kg) | Infarction suppression ratio ([1]; Dose 0.3 mg/kg) | Infarction suppression ratio ([1]; Dose 3 mg/kg) | pEC50 [2] | ED50 [3] | ED50 (Capsaicin Induced Cough)
CN(C(=O)/C=C/c1cccc(C(F)(F)F)c1)[C@H]1CC[C@H]2CN(CC3CC3)CC[C@]2(c2cccc(O)c2)C1 (relative stereo) [Compound 1, Trans-2-cyclopropylmethyl-4a-(3-hydroxyphenyl)-6α-[N-methyl-(3-trifluoromethylcinnamamido)]decahydroisoquinoline] | 32% | 13% | 23% |  |  | 
CN(C(=O)/C=C/c1cccc(C(F)(F)F)c1)[C@H]1CC[C@@]2(O)CN(CC3CC3)CC[C@]2(c2cccc(O)c2)C1 (relative stereo) [Compound 12, Trans-2-cyclopropylmethyl-8a-hydroxy-4a-(3-hydroxyphenyl)-6α-[N-methyl-(3-trifluoromethylcinnamamido)]decahydroisoquinoline] |  | 64% | 48% | 6.32 | 1.49 mg/kg | 0.00607 mg/kg
CC(C)CN(C(=O)CCCCCc1ccccc1)[C@H]1CC[C@@]2(O)CN(CC3CC3)CC[C@]2(c2cccc(O)c2)C1 (relative stereo) [Compound 13, Trans-2-cyclopropylmethyl-8a-hydroxy-4a-(3-hydroxyphenyl)-6α-[N-isobutyl-(6-phenylhexanoamido)]decahydroisoquinoline] |  |  |  | 5.52 |  | 
CC(C)CN(C(=O)Cc1ccc(Cl)c(Cl)c1)[C@H]1CC[C@@]2(O)CN(CC3CC3)CC[C@]2(c2cccc(O)c2)C1 (relative stereo) [Compound 14, Trans-2-cyclopropylmethyl-8a-hydroxy-4a-(3-hydroxyphenyl)-6α-[N-isobutyl-(3,4-dichlorophenylacetamido)]decahydroisoquinoline] |  |  |  | 5.96 | 5.78 mg/kg | 
O=C(Cc1ccc(Cl)c(Cl)c1)N[C@@H]1CC[C@H]2CN(CC3CC3)CC[C@]2(c2cccc(O)c2)C1 (relative stereo) [Compound 21, Trans-2-cyclopropylmethyl-4a-(3-hydroxyphenyl)-6β-(3,4-dichlorophenylacetamido)decahydroisoquinoline] |  |  |  | 4.90 |  | 
O=C(N[C@@H]1CC[C@H]2CN(CC3CC3)CC[C@]2(c2cccc(O)c2)C1)c1ccc2ccccc2c1 (relative stereo) [Compound 23, Trans-2-cyclopropylmethyl-4a-(3-hydroxyphenyl)-6β-(2-naphthoamido)decahydroisoquinoline] |  | 23% |  | 7.04 |  | 
O=C(N[C@@H]1CC[C@H]2CN(CCc3ccccc3)CC[C@]2(c2cccc(O)c2)C1)c1ccc2ccccc2c1 (relative stereo) [Compound 24, Trans-2-(2-phenetyl)-4a-(3-hydroxyphenyl)-6β-(2-naphthoamido)decahydroisoquinoline] |  |  |  |  | 1.7 mg/kg | 
CN(C(=O)/C=C/c1ccoc1)[C@H]1CC[C@H]2CN(CC3CC3)CC[C@]2(c2cccc(O)c2)C1 (relative stereo) [Compound 25] |  |  |  |  | 0.83 mg/kg | 
CN(C(=O)/C=C/c1cccc(C(F)(F)F)c1)[C@H]1CC[C@H]2CN(CC3CC3)CC[C@]2(c2cccc(O)c2)C1 [Compound 8, (4aS, 8aR)-trans-2-cyclopropylmethyl-4a-(3-hydroxyphenyl)-6α-[N-methyl-(3-trifluoromethylcinnamamido)]decahydroisoquinoline] | 26% | 43% | 32% |  |  | 0.00539 mg/kg
CN(C(=O)/C=C/c1cccc(C(F)(F)F)c1)[C@@H]1CC[C@@H]2CN(CC3CC3)CC[C@@]2(c2cccc(O)c2)C1 [Compound 9, (4aR, 8aS)-trans-2-cyclopropylmethyl-4a-(3-hydroxyphenyl)-6α-[N-methyl-(3-trifluoromethylcinnamamido)]decahydroisoquinoline] |  | 28% | 7% | 6.28 | 3.11 mg/kg | 
CN(C(=O)CCCCCc1ccccc1)[C@H]1CC[C@H]2CN(CC3CC3)CC[C@]2(c2cccc(O)c2)C1 [Compound 10, (4aS, 8aR)-trans-2-cyclopropylmethyl-4a-(3-hydroxyphenyl)-6α-[N-methyl-(6-phenylhexanoamido)]decahydroisoquinoline] | 19% | 21% | 7% | 7.37 | 5 mg/kg | 
CC(C)CN(C(=O)CCCCCc1ccccc1)[C@H]1CC[C@H]2CN(CC3CC3)CC[C@]2(c2cccc(O)c2)C1 [Compound 11, (4aS, 8aR)-trans-2-cyclopropylmethyl-4a-(3-hydroxyphenyl)-6α-[N-isobutyl-(6-phenylhexanoamido)]decahydroisoquinoline] | 5% |  | 33% | 4.22 |  | 
